In assay [1] the target is T1, Dopamine D2 (Rattus norvegicus, UniProt P61169).
T1 construct: The corpus striatum was crudely dissected and frozen on dry ice; from tissue; host or cells: rat corpus striatum membranes (male Sprague-Dawley rats, Charles River)
Briefly: Dopamine D2 Binding Assay ([3H]Spiperone, corpus striatum membranes). The arrangement: species or system male Sprague-Dawley rats. The settings on record: [3H]Spiperone 0.1 nM, 37° C., 15 min. Here is the method:
Activity at D2 sites is measured using the screening process set out in Example 67.
Dopamine D2 Binding Assay
Dopamine D2 affinity was determined according to the procedures of Burt, Creese and Snyder [Molecular Pharmacology 12,800 (1976); Science 196, 326 (1977); Science 192, 481 (1976)]. Briefly, male Sprague-Dawley rats (Charles River) were decapitated, brains rapidly removed and chilled in ice-cold 50 mM Hepes/KOH buffer (pH 7.4, 20° C.). The corpus striatum was crudely dissected and frozen on dry ice. Tissue was pooled and stored at -80° C. until use. On the day of assay, tissue was thawed in 20 ml ice-cold Hepes/KOH buffer, and homogenized with a polytron for 15 sec at 18,000 rpm. The homogenate was centrifuged (39,000×g, 10 min, at 4° C.). The supernatant was discarded and the pellet rehomogenized in ice-cold Hepes/KOH buffer and recentrifuged as described previously. The supernatant was again discarded and the pellet resuspended (1:100) in ice-cold Hepes/KOH buffer (pH 7.4, 20° C., containing 120 mM NaCl, 5 mM KCl, 1 mM MgCl2, 0.1% (w/v) ascorbic acid, and 10 μM pargylline, and stored on ice until assay. The binding assay (1 ml total volume) was performed in duplicate and initiated by the addition of 800 μl membrane homogenate to tubes containing 100 μl [^3 H]Spiperone (0.1 nM final concentration), and 100 μl competitor, buffer, or butaclamol, which was used to define the non-specific binding. The assay was incubated at 37° C. for 15 min, afterwhich the assay was terminated by rapid filtration.
In vitro IC50 test values for binding to the D2 receptor were determined for representative compounds of Formula I by the method of Burt, Creese, and Snyder, Molecular Pharmacology 12, 800 (1976); Creese, Burt, and Snyder, Science 196, 326 (1977); and Creese, Burt and Snyder, Science 192, 481 (1976). Test IC50 values greater than 1,000 nM are considered to reflect inactivity at the D2 receptor, indicating the risk of extrapyramidal side effects is small.

In assay [2] the test system is brain ischemia. Put plainly: Anoxic Nitrogen Test in Rats. The class given is in vivo, male Sprague-Dawley rats. The settings on record: Rattus norvegicus, sc, subcutaneously, 2 hr survival, read-out: Nitrogen Anoxia % Survival. From the text: Most specifically, administration of the compounds of Formula I results in protection against hypoxia-induced death in an anoxic nitrogen test in rats (Example 66). The test identifies the neuro-protective effects of substances against lethal brain damages produced by a lack of oxygen consumption (anoxia). In this test procedure, control animals exposed for one minute to a pure nitrogen atmosphere will expire because of respiratory failure caused by irreversible damage to the brain respiratory center.
Anoxic Nitrogen Test in Rats
The animals utilized are male Sprague-Dawley rats (200-400 grams) housed four animals per cage in a normal controlled environment with unlimited access to food and water. Usually there are 8 animals per dose, however, […] can be employed to obtain an initial impression of a compound's activity. Animals are parenterally or orally administered the vehicle or test compound 30 minutes before the anoxic insult. The anoxic episode consists of placing up to 8 animals in the sealed test chamber (10" l×10" w×6" h) continuously flushed with pure N2 (4.5 grade) at a flow rate of 5 SCFM for 1 min. Animals are then promptly removed to normal atmosphere and observed for the 2 hour period. Typically, animals become disoriented within 15 sec after which they remain motionless.
Even though the heart is still beating after the N2 exposure, all control animals fail to gasp when removed from the chamber and usually expire within 3 minutes. Drug treated animals, however, still gasp or start gasping after being removed, which is a good indication that the animals will survive the N2 exposure [see Wauquire, A., et al: Arch. Int. Pharmacodyn., 249, 330-334 (1981); Wauquier, A., et al: Drug Dev. Res., 8, 373-380 (1986)]. Results are recorded as:
(Number of animals surviving (2 hr))/(Number of animals tested)×100%
The anoxic nitrogen test is an in vivo model of brain ischemia in rats [see: Wauquire, A., et al: Arch. Int. Pharmacodyn., 249, 330-334 (1981); Wauquier, A., et al: Drug Dev. Res., 8, 373-380 (1986)]. Compounds of the present invention are active in this in vivo model of brain ischemia when given subcutaneously in the doses indicated in Table 2, thus providing additional evidence that the present compounds will be useful in the treatment of brain ischemia.

Assay [3] concerns the target T2, sigma receptor (Cavia porcellus, UniProt Q60492).
T2 construct: from tissue
Put plainly: Sigma binding (method of Tam and Cook). Here is the method: In vitro IC50 test values for binding to the sigma receptor were determined for representative compounds of Formula I by the method of Tam and Cook [see: Tam, S. W., and Cook, L: Proc. Natl. Acad. Sci. USA 81, 5618-5621 (1984)] with only minor modifications. Test IC50 values lower than 100 nM are considered to reflect activity at the sigma receptor.

Read-outs that look alike come from different tables or passages of the source.

What is called IC50 is the concentration that gives 50% inhibition. A higher IC50 goes with a need for much substance.

T2 sequence (Q60492 whole entry): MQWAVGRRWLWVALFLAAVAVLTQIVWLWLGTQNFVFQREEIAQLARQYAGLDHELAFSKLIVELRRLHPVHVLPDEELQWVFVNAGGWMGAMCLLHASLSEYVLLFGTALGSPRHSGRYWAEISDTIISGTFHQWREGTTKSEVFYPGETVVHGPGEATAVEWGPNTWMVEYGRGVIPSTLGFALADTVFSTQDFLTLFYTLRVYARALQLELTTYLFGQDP
T1 sequence (P61169 whole entry): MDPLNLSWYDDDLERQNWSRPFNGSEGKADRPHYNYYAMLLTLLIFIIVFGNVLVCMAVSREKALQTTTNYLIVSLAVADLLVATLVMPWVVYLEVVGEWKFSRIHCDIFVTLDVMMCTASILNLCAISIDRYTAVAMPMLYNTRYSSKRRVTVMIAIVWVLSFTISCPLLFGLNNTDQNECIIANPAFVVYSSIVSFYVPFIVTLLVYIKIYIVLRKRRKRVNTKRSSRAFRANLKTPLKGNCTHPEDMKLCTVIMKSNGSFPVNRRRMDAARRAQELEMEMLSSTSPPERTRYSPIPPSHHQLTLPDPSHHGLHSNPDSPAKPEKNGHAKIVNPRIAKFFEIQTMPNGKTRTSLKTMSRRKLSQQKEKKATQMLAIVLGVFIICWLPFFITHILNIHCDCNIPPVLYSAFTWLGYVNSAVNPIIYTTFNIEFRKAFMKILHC

For the molecule `Fc1ccc(C2=CCC(N3CCN(Cc4ccccc4)CC3)CC2)cc1` (stereo not drawn) [Example 35, 1-[4-(4-Fluorophenyl)-3-cyclohexen-1-yl]-4-(phenylmethyl)-piperazine], the figures for the IC50 in assay [1] and in assay [3] were 50 to 100 µM and 0.0019 µM, respectively. Besides, the responders at 15 mg/kg in assay [2] (15 & 20 mg/kg) stood at 100%. For `Fc1ccc2[nH]cc(C3=CCC(N4CCN(Cc5ccccc5)CC4)CC3)c2c1` (stereo not drawn) [Example 49, 5-Fluoro-3-{4-[4-(phenylmethyl)-1-piperazinyl]-1-cyclohexen-1-yl]-1H-indole], the results for the IC50 in assay [1] and in assay [3] were 1 to 10 µM and 0.0086 µM, respectively. Moreover, in assay [2] (10 & 60 mg/kg), the responders at 10 mg/kg was 92%. With `COc1cccc(CN2CCN([C@H]3CC[C@H](c4ccc(F)cc4)CC3)CC2)c1` [Example 65, Trans 1-[4-(4-fluorophenyl)-1-cyclohexyl]-4-[(3-methoxyphenyl)methyl]piperazine], the IC50 in assay [1] is 1 to 10 µM; in assay [3] it was 0.0032 µM. The responders at 10 mg/kg in assay [2] (10 mg/kg) was determined as 62%.

Take `C1=C(c2ccc3c(c2)OCCO3)CCC(N2CCN(Cc3ccccc3)CC2)C1` (stereo not drawn) [Example 56, 1-[4-(1,4-Benzodioxan-6-yl)-3-cyclohexen-1-yl]-4-(phenylmethyl)piperazine]: in assay [2] (10 mg/kg), the responders at 10 mg/kg turned out to be 100%. In turn, `Fc1ccc(F)c(CN2CCN(C3CC=C(c4ccc5c(c4)OCO5)CC3)CC2)c1` (stereo not drawn) [Example 58, 1-[4-(1,3-Benzodioxol-5-yl)-3-cyclohexen-1-yl]-4-[(2,5-difluorophenyl)methyl]piperazine] came in with an IC50 in assay [1] of 1 to 10 µM. Moreover, the responders at 10 mg/kg in assay [2] (10 mg/kg) was 62%.

`Fc1ccc(C2=CCC(N3CCN(Cc4ccc5ccccc5n4)CC3)CC2)cc1` (stereo not drawn) [Example 45, 2{{4-[4-(4-Fluorophenyl)-3-cyclohexen-1-yl]-1-piperazinyl]methyl]quinoline] gave an IC50 in assay [1] of 1 to 10 µM. Moreover, the responders at 20 mg/kg in assay [2] (20 mg/kg) was determined as 83%. For the molecule `Fc1ccccc1CC1CCN(C2CC=C(c3ccc4c(c3)OCO4)CC2)CC1` (stereo not drawn) [Example 53, 1-[4-(1,3-Benzodioxol-5-yl)-3-cyclohexen-1-yl]-4-[(2-fluorophenyl)methyl]piperidine], the IC50 in assay [1] was 1 to 10 µM.

`Fc1ccc(C2=CCC(N3CCN(Cc4cccs4)CC3)CC2)cc1` (stereo not drawn) [Example 44, 1-[4-(4-Fluorophenyl)-3-cyclohexen-1-yl]-4-(2-thienylmethyl)piperazine] had an IC50 in assay [1] of 1 to 10 µM. The responders at 40 mg/kg in assay [2] (40 mg/kg) amounted to 100%. Consider `Fc1ccc(F)c(CC2CCN(C3CC=C(c4ccc(F)c(F)c4)CC3)CC2)c1` (stereo not drawn) [Example 55, 1-[4-(3,4-Difluorophenyl)-3-cyclohexen-1-yl]-4-[(2,5-difluorophenyl)methyl]piperidine], for which, in assay [1], the IC50 is 1 to 10 µM. For the molecule `Clc1ccccc1CN1CCN(C2CC=C(c3ccc4c(c3)OCO4)CC2)CC1` (stereo not drawn) [Example 57, 1-[4-(1,3-Benzodioxol-5-yl)-3-cyclohexen-1-yl]-4-[(2-chlorophenyl)methyl]piperazine], the IC50 in assay [1] is 1 to 10 µM. Further, in assay [2] (10 mg/kg), the responders at 10 mg/kg worked out at 25%.

In assay [1], `Ic1ccc(I)c(CN2CCN(C3CC=C(c4ccc5c(c4)OCO5)CC3)CC2)c1` (stereo not drawn) [Example 61, 1-[4-(1,3-Benzodioxol-5-yl)-3-cyclohexen-1-yl]-4-[(2,5-diiodophenyl)methyl]piperazine] came in with an IC50 of over 100 µM. With `Fc1ccc(C2=CCC(N3CCN(Cc4ccccc4)CC3)CC2)c2ccccc12` (stereo not drawn) [Example 36, 1-[4-(4-Fluoro-1-naphthalenyl)-3-cyclohexen-1-yl]-4-(phenylmethyl)piperazin], the IC50 in assay [1] fell in the range of 1 to 10 µM. Besides, in assay [2] (50 mg/kg), the responders at 50 mg/kg stood at 100%.

As for `COc1cccc(CN2CCN(C3CC=C(c4ccc5c(c4)OCO5)CC3)CC2)c1` (stereo not drawn) [Example 59, 1-[4-(1,3-Benzodioxol-5-yl)-3-cyclohexen-1-yl]-4-[(3-methoxyphenyl)methyl]piperazine], the IC50 in assay [1] fell in the range of 1 to 10 µM. For the same molecule, in assay [2] (10 mg/kg), the responders at 10 mg/kg came out at 75%. Consider `Fc1ccc([C@H]2CC[C@H](N3CCN(Cc4ccc5ccccc5n4)CC3)CC2)cc1` [Example 64, Trans 2-{{4-[4-(4-fluorophenyl)-1-cyclohexyl]-1-piperazinyl}methyl]quinoline], for which, in assay [1], the IC50 fell in the range of 1 to 10 µM. Besides, in assay [2] (5 & 20 mg/kg), the responders at 5 mg/kg was 83%.

Values taken from US6153611A, “Piperazinyl-cyclohexanes and cyclohexenes” (Bristol-Myers Squibb Company, priority 1993, dated 2000).
